Values after ≈ are worked out from the molar mass of the structure shown. Active and inactive are the calls of the source. The calls are words filed in the database; no cut-off is given here. Square brackets hold non-standard residues; d marks the D form. Peptide text beside a SMILES is read from it. Dip = N[C@H](C(=O)O)C(c1ccccc1)c1ccccc1; 2Nal = N[C@@H](Cc1ccc2ccccc2c1)C(=O)O
How the values were obtained:
Staphylococcus aureus [1] = assay: Antibacterial activity against methicillin-resistant Staphylococcus aureus ATCC BAA-1556 assessed as loss of membrane fluid at 4 times of MIC incubated for 30 mins by FE-SEM analysis; assay type: functional, organism-based
Staphylococcus aureus [2] = assay: Antibacterial activity against methicillin resistant Staphylococcus aureus ATCC BAA-1556 incubated for 24 hrs by microtiter plate method; assay type: functional; conditions: Staphylococcus aureus, ATCC BAA-1556, 24 h, read-out: MIC
Staphylococcus aureus [3] = assay: Antibacterial activity against Staphylococcus aureus ATCC 29213 incubated for 24 hrs by microtiter plate method; assay type: functional; conditions: Staphylococcus aureus, ATCC 29213, read-out: MIC
Pseudomonas aeruginosa [4] = assay: Antibacterial activity against Pseudomonas aeruginosa ATCC 27883 incubated for 24 hrs by microtiter plate method; assay type: functional; conditions: Pseudomonas aeruginosa, ATCC 27883, read-out: MIC
Enterococcus faecium = assay: Antibacterial activity against vancomycin-resistant Enterococcus faecium ATCC 700221 incubated for 24 hrs by microtiter plate method; assay type: functional
Enterococcus faecalis [5] = assay: Antibacterial activity against Enterococcus faecalis ATCC 29212 incubated for 24 hrs by microtiter plate method; assay type: functional
Enterococcus faecalis [6] = assay: Antibacterial activity against vancomycin-resistant Enterococcus faecalis ATCC 51575 incubated for 24 hrs by microtiter plate method; assay type: functional
Streptococcus pneumoniae = assay: Antibacterial activity against […] ATCC 49619 incubated for 24 hrs by microtiter plate method; assay type: functional
Bacillus subtilis = assay: Antibacterial activity against Bacillus subtilis ATCC 6633 incubated for 24 hrs by microtiter plate method; assay type: functional
Bacillus cereus = assay: Antibacterial activity against Bacillus cereus ATCC 13061 incubated for 24 hrs by microtiter plate method; assay type: functional
Escherichia coli [7] = assay: Antibacterial activity against Escherichia coli NDM-1-resistant ATCC BAA-2452 incubated for 24 hrs by microtiter plate method; assay type: functional
Klebsiella pneumoniae [8] = assay: Antibacterial activity against Klebsiella pneumoniae ATCC 13883 […] incubated for 24 hrs by microtiter plate method; assay type: functional
Klebsiella pneumoniae [9] = assay: Antibacterial activity against carbapenem-resistant Klebsiella pneumoniae ATCC BAA-2470 incubated for 24 hrs by microtiter plate method; assay type: functional
Acinetobacter baumannii = assay: Antibacterial activity against ciprofloxacin resistance Acinetobacter baumannii ATCC BAA1605 incubated for 24 hrs by microtiter plate method; assay type: functional
Pseudomonas aeruginosa [10] = assay: Antibacterial activity against Pseudomonas aeruginosa ATCC 10145 incubated for 24 hrs by microtiter plate method; assay type: functional
Staphylococcus aureus [11] = assay: Antibacterial activity against methicillin resistant Staphylococcus aureus ATCC BAA-1556 incubated for 24 hrs; assay type: functional
Staphylococcus aureus [12] = assay: Antibacterial activity against methicillin resistant Staphylococcus aureus ATCC BAA-1556 after 24 hrs in presence of 150 mM of NaCl by microtiter plate method; assay type: functional
Staphylococcus aureus [13] = assay: Antibacterial activity against methicillin resistant Staphylococcus aureus ATCC BAA-1556 after 24 hrs in presence of 4.5 mM of KCl by microtiter plate method; assay type: functional
Staphylococcus aureus [14] = assay: Antibacterial activity against methicillin resistant Staphylococcus aureus ATCC BAA-1556 after 24 hrs in presence of 1 mM of by microtiter plate method; assay type: functional
Staphylococcus aureus [15] = assay: Antibacterial activity against methicillin resistant Staphylococcus aureus ATCC BAA-1556 after 24 hrs in presence of 2 mM of CaCl2 by microtiter plate method; assay type: functional
Escherichia coli [16] = assay: Antibacterial activity against Escherichia coli ATCC 25922 assessed as reduction in microbial growth after 24 hrs in presence of 6 mM of NH4Cl at by microtiter plate method; assay type: functional
Escherichia coli [17] = assay: Antibacterial activity against Escherichia coli ATCC 25922 after 24 hrs in presence of 2 mM CaCl2 at by microtiter plate method; assay type: functional
[18] = Cytotoxicity against human MRC5 assessed as cell viability at 50 ug/ml incubated for 24 hrs by microplate spectrophotometer analysis method relative to control; assay type: toxicity, cell-based; conditions: MRC5 cells, at 50 µg/mL, read-out: Activity
HepaRG [19] = assay: Cytotoxicity against human HPRGC10 assessed as cell viability at 50 ug/ml incubated for 24 hrs by microplate spectrophotometer analysis method relative to control; assay type: functional; conditions: read-out: Activity
HepaRG [20] = assay: Cytotoxicity against human HPRGC10 assessed as cell viability at 150 ug/ml incubated for 24 hrs by microplate spectrophotometer analysis method relative to control; assay type: functional; conditions: read-out: Activity
Lipid bilayer [21] = assay: Membrano-lytic effect in bacterial inner membrane mimic DOPC/DOPG (7:3) large unilamellar vesicles assessed as calcein leakage measured upto 100 mins for every 10 mins by multimode microplate reader assay; assay type: cell membranes; conditions: dose 5-50 µg/ml, DDE = dose-dependent effect
Escherichia coli [22] = assay: Bactericidal activity against Escherichia coli ATCC BAA-2452 assessed as reduction of bacterial growth at 4 times MIC by counting formed colonies; assay type: functional, organism-based; conditions: time <= 4.0 hrs, TDE = time-dependent effect
Escherichia coli [23] = assay: Bactericidal activity against Escherichia coli ATCC BAA-2452 assessed as reduction of bacterial growth at MIC by counting formed colonies; assay type: functional, organism-based; conditions: time <= 4.0 hrs, TDE = time-dependent effect
Staphylococcus aureus [24] = assay: Bactericidal activity against methicillin resistant Staphylococcus aureus ATCC BAA-1556 assessed as reduction of bacterial growth at 4 times MIC by counting formed colonies; assay type: functional, organism-based; conditions: time <= 4.0 hrs, TDE = time-dependent effect
Staphylococcus aureus [25] = assay: Bactericidal activity against methicillin resistant Staphylococcus aureus ATCC BAA-1556 assessed as time required for complete reduction of bacterial growth at MIC by counting formed colonies; assay type: functional
Lipid bilayer [26] = assay: Membrano-lytic effect in bacterial inner membrane mimic DOPC/DOPG (7:3) large unilamellar vesicles assessed as calcein leakage measured at 5 microg/ml, incubated for 30 mins by multimode microplate reader assay; assay type: cell membranes; conditions: dose 5.0 µg/ml
Staphylococcus aureus [27] = assay: Antibacterial activity against methicillin-resistant Staphylococcus aureus ATCC BAA-1556 assessed as membrane atrophy at 4 times of MIC incubated for 30 mins by FE-SEM analysis; assay type: functional, organism-based
Escherichia coli [28] = assay: Antibacterial activity against Escherichia coli ATCC BAA-2452 assessed as loss of membrane fluid at 4 times of MIC incubated for 30 mins by FE-SEM analysis; assay type: functional, organism-based
Escherichia coli [29] = assay: Antibacterial activity against Escherichia coli ATCC BAA-2452 assessed as membrane atrophy at 4 times of MIC incubated for 30 mins by FE-SEM analysis; assay type: functional, organism-based
[30] = Proteolytic stability in human plasma at 100 uM incubated for 30 mins by Q-TOF LC/MS analysis relative to control; assay type: ADME, cell-free; conditions: read-out: Stability
Lipid bilayer [31] = assay: Induction of membrane disruption in bacterial inner membrane mimic DOPC/DOPG (7:3) large unilamellar vesicles assessed as decrease in particle size of liposome at 1:1 compound to lipid ratio measured after 90 mins by dynamic light scattering analysis; assay type: cell membranes
[32] = Selectivity ratio of MIC for antibacterial activity against Pseudomonas aeruginosa ATCC 10145 to MIC for antibacterial activity against imipenem-resistant Pseudomonas aeruginosa ATCC BAA-1744; assay type: functional
Cell membrane [33] = assay: Membrano-lytic effect in cytoplasmic membrane of methicillin resistant Staphylococcus aureus ATCC BAA-1556 assessed as disruption by measuring propidium iodide fluorescence incubated for 1 hr by FACscan flow cytometer analysis; conditions: DDE = dose-dependent effect
Cell membrane [34] = assay: Membrano-lytic effect in cytoplasmic membrane of Escherichia coli ATCC BAA-2452 assessed as disruption by measuring propidium iodide fluorescence incubated for 1 hr by FACscan flow cytometer analysis; conditions: DDE = dose-dependent effect

SMILES: N=C(N)NCCC[C@@H]1NC(=O)[C@H](CCCNC(=N)N)NC(=O)[C@H](CCCNC(=N)N)NC(=O)[C@H](Cc2ccc3ccccc3c2)NC(=O)[C@H](Cc2ccc3ccccc3c2)NC(=O)[C@H](Cc2ccc3ccccc3c2)NC(=O)[C@H](CCCNC(=N)N)NC1=O (cyclo(RRRR[2Nal][2Nal][2Nal]))
- Activity (Staphylococcus aureus [1]): Active
- MIC (Staphylococcus aureus [2]): 3.1 µg/mL (≈ 2.55 µM)
- MIC (Staphylococcus aureus [3]): 3.1 µg/mL (≈ 2.55 µM)
- MIC (Pseudomonas aeruginosa [4]): 12.5 µg/mL (≈ 10.3 µM)
- MIC (Enterococcus faecium): 3.1 µg/mL (≈ 2.55 µM)
- MIC (Enterococcus faecalis [5]): 3.1 µg/mL (≈ 2.55 µM)
- MIC (Enterococcus faecalis [6]): 3.1 µg/mL (≈ 2.55 µM)
- MIC (Streptococcus pneumoniae): 25 µg/mL (≈ 20.6 µM)
- MIC (Bacillus subtilis): 1.5 µg/mL (≈ 1.23 µM)
- MIC (Bacillus cereus): 3.1 µg/mL (≈ 2.55 µM)
- MIC (Escherichia coli [7]): 12.5 µg/mL (≈ 10.3 µM)
- MIC (Klebsiella pneumoniae [8]): 50 µg/mL (≈ 41.1 µM)
- MIC (Klebsiella pneumoniae [9]): 12.5 µg/mL (≈ 10.3 µM)
- MIC (Acinetobacter baumannii): 12.5 µg/mL (≈ 10.3 µM)
- MIC (Pseudomonas aeruginosa [10]): 25 µg/mL (≈ 20.6 µM)
- MBC (Staphylococcus aureus [11]): 6.2 µg/mL (≈ 5.1 µM)
- MIC (Staphylococcus aureus [12]): 3.1 µg/mL
- MIC (Staphylococcus aureus [13]): 3.1 µg/mL
- MIC (Staphylococcus aureus [14]): 3.1 µg/mL
- MIC (Staphylococcus aureus [15]): 3.1 µg/mL
- MIC (Escherichia coli [16]): 25 µg/mL
- MIC (Escherichia coli [17]): 25 µg/mL
- viability at 24 h, 50 ug/ml [18]: 93%
- viability at 50 µg/mL (HepaRG [19]): 93%
- viability at 150 µg/mL (HepaRG [20]): 61%
- Activity (Lipid bilayer [21]): Dde
- Activity (Escherichia coli [22]): Tde
- Activity (Escherichia coli [23]): Tde
- Activity (Staphylococcus aureus [24]): Tde
- Activity (Staphylococcus aureus [25]): Active
- Activity (Lipid bilayer [26]): 30%
- Activity (Staphylococcus aureus [27]): Active
- Activity (Escherichia coli [28]): Active
- Activity (Escherichia coli [29]): Active
- remaining at 0.5 h, 100 µM [30]: 82%
- Activity (Lipid bilayer [31]): Active
- Ratio [32]: 2
- Activity (Cell membrane [33]): Dde
- Activity (Cell membrane [34]): Dde

SMILES: N=C(N)NCCC[C@@H]1NC(=O)[C@H](CCCNC(=N)N)NC(=O)[C@H](CCCNC(=N)N)NC(=O)[C@H](C(c2ccccc2)c2ccccc2)NC(=O)[C@H](C(c2ccccc2)c2ccccc2)NC(=O)[C@H](C(c2ccccc2)c2ccccc2)NC(=O)[C@H](CCCNC(=N)N)NC1=O (cyclo(RRRR[Dip][Dip][Dip]))
- Activity (Staphylococcus aureus [1]): Active
- MIC (Staphylococcus aureus [2]): 3.1 µg/mL (≈ 2.39 µM)
- MIC (Staphylococcus aureus [3]): 3.1 µg/mL (≈ 2.39 µM)
- MIC (Pseudomonas aeruginosa [4]): 12.5 µg/mL (≈ 9.66 µM)
- MIC (Enterococcus faecium): 3.1 µg/mL (≈ 2.39 µM)
- MIC (Enterococcus faecalis [5]): 3.1 µg/mL (≈ 2.39 µM)
- MIC (Enterococcus faecalis [6]): 6.2 µg/mL (≈ 4.79 µM)
- MIC (Streptococcus pneumoniae): 25 µg/mL (≈ 19.3 µM)
- MIC (Bacillus subtilis): 1.5 µg/mL (≈ 1.16 µM)
- MIC (Bacillus cereus): 3.1 µg/mL (≈ 2.39 µM)
- MIC (Escherichia coli [7]): 12.5 µg/mL (≈ 9.66 µM)
- MIC (Klebsiella pneumoniae [8]): 50 µg/mL (≈ 38.6 µM)
- MIC (Klebsiella pneumoniae [9]): 12.5 µg/mL (≈ 9.66 µM)
- MIC (Acinetobacter baumannii): 12.5 µg/mL (≈ 9.66 µM)
- MIC (Pseudomonas aeruginosa [10]): 25 µg/mL (≈ 19.3 µM)
- MBC (Staphylococcus aureus [11]): 6.2 µg/mL (≈ 4.79 µM)
- MIC (Staphylococcus aureus [12]): 3.1 µg/mL
- MIC (Staphylococcus aureus [13]): 3.1 µg/mL
- MIC (Staphylococcus aureus [14]): 6.2 µg/mL
- MIC (Staphylococcus aureus [15]): 3.1 µg/mL
- MIC (Escherichia coli [16]): 12.5 µg/mL
- MIC (Escherichia coli [17]): 12.5 µg/mL
- viability at 24 h, 50 ug/ml [18]: 93%
- viability at 50 µg/mL (HepaRG [19]): 93%
- viability at 150 µg/mL (HepaRG [20]): 61%
- Activity (Lipid bilayer [21]): Dde
- Activity (Escherichia coli [22]): Tde
- Activity (Escherichia coli [23]): Tde
- Activity (Staphylococcus aureus [24]): Tde
- Activity (Staphylococcus aureus [25]): Active
- Activity (Lipid bilayer [26]): 30%
- Activity (Staphylococcus aureus [27]): Active
- Activity (Escherichia coli [28]): Active
- Activity (Escherichia coli [29]): Active
- remaining at 0.5 h, 100 µM [30]: 86%
- Activity (Lipid bilayer [31]): Active
- Ratio [32]: 2
- Activity (Cell membrane [33]): Dde
- Activity (Cell membrane [34]): Dde
